These results are taken from patent publication US7728146B2, “Enzyme inhibitors” (Probiodrug AG, priority 2006, dated 2010).

By IC50 is commonly meant the midpoint of a concentration-inhibition curve.

The assay addresses DP IV (Homo sapiens, UniProt P27487). Nature of the assay: DP IV inhibition IC50, parallel-synthesis compounds tested directly following synthesis (without purification). It counts as biochemical. The conditions noted are these: DP IV inhibition; compounds of formula (Ib) from parallel synthesis, tested directly following synthesis (without purification); read-out: IC50. Details: IC50 DP4; other: tested directly following parallel synthesis, without purification; compounds of formula (Ib) from parallel synthesis, tested directly following synthesis. On the procedure:
Compounds were immediately tested regarding their activity as DP IV inhibitors.
Substances are screened for inhibition of dipeptidyl peptidase (DP IV) by their ability to inhibit the hydrolysis of the DP IV specific substrate Glycyl-Prolyl-4-Nitroanilide (Gly-Pro-pNA). All compounds are diluted in DMSO and IC50 will be determined with 11 serial dilutions (1:2) starting with an final concentration of 100 μM. The final DMSO concentration in the assay is 5% (v/v). The method was automated using a Tecan Genesis Freedom liquid handler and a Genius Pro (Tecan) microplate reader.
DP IV from porcine kidney (pDP IV) or recombinant human DP IV (rhDP IV) is diluted in HEPES buffer to a final activity of approximately 40-50 μU*ml^−1. The DP IV is stored in a cooling rack (4° C.) on the liquid handler.
The assay may becarried out at room temperature using Freedom liquid handler connected with a Genios Pro microplate reader. Each sample is measured in duplicate. Each sample stock solution is prediluted with DMSO in a ratio of 1:5 in a polypropylen 96-well plate. From this predilution 10 serial (1:2) dilutions in DMSO are prepared. 13.5 μl of the 11 DMSO dilutions and DMSO alone are transferred to the measurement microplate (duplicates) and 86.5 μl water, 100 μl HEPES buffer and 50 μl substrate solution are added to each well. The enzymatic reaction is started by addition of 20 μl enzyme solution to each well, and then the microplate is immediately transferred to the microplate reader.
After short mixing (20 s) the release of 4-Nitroanilin (pNA) is monitored at 405 nm for 30 cycles (approx. 18 min).
Post assay calculations are done by the Magellan (Tecan) and Graphit Software. The linear slopes are calculated for each well and averaged for the duplicates. The residue activities are calculated in relation to a sample containing only solvent instead of inhibitor and expressed in %. Residue activities are plotted against the log of inhibitor concentrations and IC50 is calculated by an 4-parameter fitting ranging from 0 to 100%.
Turning to `NCc1c(-c2ccc(Cl)cc2Cl)ncn1Cc1ccc(C(F)(F)F)cc1` [98b, C-[5-(2,4-Dichloro-phenyl)-3-(4-trifluoromethyl-benzyl)-3H-imidazol-4-yl]-methylamine], the 50% inhibitory concentration (IC50) amounted to 27.1 µM. In the case of `CC(C)CCCCCCn1cnc(-c2ccc(Cl)cc2Cl)c1CN` [99b, C-[5-(2,4-Dichloro-phenyl)-3-(7-methyl-octyl)-3H-imidazol-4-yl]-methylamine] it was 4.6 µM; in that of `NCc1c(-c2ccc(Cl)cc2Cl)ncn1CCOc1ccccc1` [100b, C-[5-(2,4-Dichloro-phenyl)-3-(2-phenoxy-ethyl)-3H-imidazol-4-yl]-methylamine], 34.3 µM; in that of `C[C@H](N)c1c(-c2ccc(Cl)cc2Cl)ncn1CCc1c[nH]c2cc(Cl)ccc12` [101b, (S)-1-[3-[2-(6-Chloro-1H-indol-3-yl)-ethyl]-5-(2,4-dichloro-phenyl)-3H-imidazol-4-yl]-ethylamine], 47.8 µM. In the case of `NCc1c(-c2ccc(Cl)cc2Cl)ncn1CCc1ccc(Cl)cc1` [102b, C-[3-[2-(4-Chloro-phenyl)-ethyl]-5-(2,4-dichloro-phenyl)-3H-imidazol-4-yl]-methylamine], the IC50 was determined as 19 µM. In the case of `C[C@H](N)c1c(-c2ccc(Cl)cc2Cl)ncn1CCc1c[nH]c2ccccc12` [103b, (S)-1-{5-(2,4-Dichloro-phenyl)-3-[2-(1H-indol-3-yl)-ethyl]-3H-imidazol-4-yl}-ethylamine] it was 44.2 µM; in that of `NCCCc1c(-c2ccc(Cl)cc2Cl)ncn1CCc1c[nH]c2cc(Cl)ccc12` [105b, 3-[3-[2-(6-Chloro-1H-indol-3-yl)-ethyl]-5-(2,4-dichloro-phenyl)-3H-imidazol-4-yl]-propylamine], 37.9 µM; in that of `CC(N)c1c(-c2ccc(Cl)cc2Cl)ncn1CCCCc1ccccc1` (centres unmarked) [106b, 1-[5-(2,4-Dichloro-phenyl)-3-(4-phenyl-butyl)-3H-imidazol-4-yl]-ethylamine], 28 µM. As for `NCCCc1c(-c2ccc(Cl)cc2Cl)ncn1CCc1cccc(Cl)c1` [107b, 3-[3-[2-(3-Chloro-phenyl)-ethyl]-5-(2,4-dichloro-phenyl)-3H-imidazol-4-yl]-propylamine], the figure is 42.4 µM; as for `NCc1c(-c2ccc(Cl)cc2Cl)ncn1Cc1ccccc1C(F)(F)F` [108b, C-[5-(2,4-Dichloro-phenyl)-3-(2-trifluoromethyl-benzyl)-3H-imidazol-4-yl]-methylamine], 5.5 µM. For the compound `CC(N)c1c(-c2ccc(Cl)cc2Cl)ncn1Cc1ccccc1` (centres unmarked) [109b, 1-[3-Benzyl-5-(2,4-dichloro-phenyl)-3H-imidazol-4-yl]-ethylamine], the IC50 stood at 7.3 µM.

On to `C[C@H](N)c1c(-c2ccc(Cl)cc2Cl)ncn1CCc1c[nH]c2cc(F)ccc12` [110b, (S)-1-{5-(2,4-Dichloro-phenyl)-3-[2-(6-fluoro-1H-indol-3-yl)-ethyl]-3H-imidazol-4-yl}-ethylamine], for which the IC50 worked out at 42.4 µM. In the case of `C[C@H](N)c1c(-c2ccc(Cl)cc2Cl)ncn1CCNc1ccc([N+](=O)[O-])cn1` [111b, {2-[5-((S)-1-Amino-ethyl)-4-(2,4-dichloro-phenyl)-imidazol-1-yl]-ethyl}-(5-nitro-pyridin-2-yl)-amine] it was 21.7 µM; in that of `NCc1c(-c2ccc(Cl)cc2Cl)ncn1CCc1ccc(O)cc1` [113b, 4-{2-[5-Aminomethyl-4-(2,4-dichloro-phenyl)-imidazol-1-yl]-ethyl}-phenol], 21.7 µM. In the case of `NCc1c(-c2ccc(Cl)cc2Cl)ncn1CCc1c[nH]c2cc(F)ccc12` [114b, C-{5-(2,4-Dichloro-phenyl)-3-[2-(6-fluoro-1H-indol-3-yl)-ethyl]-3H-imidazol-4-yl}-methylamine], the IC50 worked out at 3.7 µM. In the case of `CCCCCn1cnc(-c2ccc(Cl)cc2Cl)c1C(C)N` (centres unmarked) [115b, 1-[5-(2,4-Dichloro-phenyl)-3-pentyl-3H-imidazol-4-yl]-ethylamine] it was 29.8 µM; in that of `Cc1ccc(Cn2cnc(-c3ccc(Cl)cc3Cl)c2C(C)N)cc1` (centres unmarked) [116b, 1-[5-(2,4-Dichloro-phenyl)-3-(4-methyl-benzyl)-3H-imidazol-4-yl]-ethylamine], 23.5 µM.
